# Reference: PMC12645191, “Dicarboxylate and dicarboxylic acid appended supramolecular self-associating amphiphiles as antimicrobial agents against high priority bacterial pathogens” (Organic & Biomolecular Chemistry, 2025)
# “And” between values parts separate entries of the source, which are not always exact repeats. Equal values may be shown once.
# Experiments:
# Caco-2 cell line = assay: bi-directional permeability in Caco-2 cell line; assay type: in vitro ADME, human
# Method: Metabolic stability was assessed in mouse and rat liver microsomes. Microsomes are subcellular fractions of hepatocytes and contain CYP450s, the predominant enzymes involved in first-pass metabolism.[66] […] A plasma protein binding assay was performed to assess the extent of compound binding to plasma proteins. This is key as only unbound compound is free to distribute and exert a pharmacological effect. […] To assess the potential for this sub-class of SSAs to be developed as drugs for oral administration, Caco-2 permeability assays were also performed, as a cellular model indicative of human intestinal permeability. […]
# Sample analysis was by electrospray ionisation. […]
# Bi-directional Permeability in Caco-2 Cell Line:
# The bi-directional permeability in Caco-2 cell lines was determined by seeding cells onto an HTS Transwell plate. Cells were cultivated for 14-18 days in a cell culture incubator at 37 °C, 5 % CO2, 95 % relative humidity. Cell culture medium was replaced every other day. To assess monolayer integrity the transepithelial electrical resistance (TEER) across the monolayer was measured using Millicell Epithelial volt-ohm meter prior to assay and Lucifer yellow (LY) fluorescence measurement post-assay.
# Test and control compounds were prepared in DMSO and diluted in Hank’s Balanced Saline […]
# Solution (HBSS, pH 7.4) to a final concentration of 5 or 10 µM. Compound was added to the […]
# donor compartment of the transwell plate for both apical to basolateral (A>B) and basolateral […]
# to apical (B>A) measurements, with blank HBSS being added to the receiver compartment.
# The transwell plate was then incubated at 37 °C, 5 % CO2 for 2 hours.
# [1] = protein binding in human plasma by equilibrium dialysis; assay type: in vitro ADME
# Method: Metabolic stability was assessed in mouse and rat liver microsomes. […] A plasma protein binding assay was performed to assess the extent of compound binding to plasma proteins. This is key as only unbound compound is free to distribute and exert a pharmacological effect. […] To assess the potential for this sub-class of SSAs to be developed as drugs for oral administration, Caco-2 permeability assays were also performed, as a cellular model indicative of human intestinal permeability. […] The […] MS/MS analysis. Samples were analysed using a Shimadzu liquid chromatography system coupled to a Triple Quad 6500+ mass spectrometry (AB Inc.) Separation of compounds was achieved using an HSS T3 column (50 x 2.1 mm) at a temperature of 40 °C and a binary mobile phase gradient at a flow rate of 0.7 mL/min. […] This was ramped to 95 % solvent B at 0.7 minutes, held for 0.5 minutes and then […] returned to initial conditions. Sample analysis was by electrospray ionisation. Protein Binding Measurements in Human Plasma by Using Equilibrium Dialysis Method : The fraction unbound in human plasma (P -KB, Ltd People's hospital of Shandong) were measured using 96-well Equilibrium Dialysis Plate (HTDialysis LLC, Gales Ferry, CT). Human plasma containing 5 μM test compound were dialysed against dialysis buffer (PBS) with initial samples taken to allow for assessment of plasma stability and recovery before the plate was incubated for 6 hours at 37 °C at 5 % CO2. Samples were removed at 6 hours, and all samples […] appropriate analytical internal standard. Samples were centrifuged at 3,220 g for 30 minutes (Eppendorf 5810R) to precipitate protein and enable sampling of supernatant prior to appropriate dilution for liquid chromatography mass -spectrometry (LC-MS/MS) analysis. Samples were analysed using a Shimadzu coupled to a triple Quad 6500 + (AB Inc., Illinois). Separation of analytes was achieved using a Xselect Hss T3 (2.1 x 50 mm) column at a temperature of 40 °C and a binary mobile phase gra dient at a flow rate of 0.8 mL/min. Initial […] formic acid in acetonitrile); this was ramped to 98 % B at 0.5 min, held for 0.4 min and then immediately returned to initial conditions. Sample analysis was by electrospray ionisation in positive ion mode. Bi-directional Permeability in Caco-2 Cell Line: The bi-directional permeability in Caco-2 cell lines was determined by seeding cells onto an HTS Transwell plate. Cells were cultivated for 14-18 days in a cell culture incubator at 37 °C, 5 % CO2, 95 % relative humidity. Cell culture medium was replaced every other day. To assess monolayer integrity the transepithelial electrical resistance (TEER) across the monolayer was measured using Millicell Epithelial volt-ohm meter prior to assay and Lucifer yellow (LY) fluorescence measurement post-assay. Test and control compounds were prepared in DMSO and diluted in Hank's Balanced Saline […] Compound was added to the donor compartment of the transwell plate for both apical to basolateral (A>B) and basolateral to apical (B>A) measurements, with blank HBSS being added to the receiver compartment. The transwell plate was then incubated at 37 °C, 5 % CO2 for 2 hours. 5
# E. coli NCTC 12923 = assay: inhibition of bacterial growth, OD600 after 20 h; assay type: cell-based, Escherichia coli; details: SSA 5.0 mM, 2.5% ethanol, negative = enhanced growth
# Method: (§1) With the self-associative properties of 1–10 established, the antimicrobial activity of these SSAs were determined against a panel of clinically relevant, high-priority pathogens including: P. aeruginosa PAO1; Klebsiella pneumonia (K. pneumoniae) M6; E. coli NCTC 12923; Acinetobacter baumannii (A. baumannii) ATCC 17978; S. aureus ATCC 9144; Enterococcus faecalis (E. faecalis) NCTC 775; and Enterococcus faecium (E. faecium) NCTC 12204. […] However, it should be noted that the SSA stock solution was prepared in a H2O 5% EtOH solution, to ensure that the SSA aggregates formed were in line with those characterised within the scope of the SSA self-association studies.
# (§2) Section 3: Biological methods
# (§3) These methods were taken directly from UK Health and Security Office (UKHSA) standard […]
# (§4) Preparation of Luria Broth media (LB): Yeast extract (5.0 g), tryptone (10.0 g) and sodium chloride (10.0 g) were dissolved in dH₂O (1.0 L) then divided into bottles and autoclaved.
# (§5) Preparation of Luria Broth (LB) agar plates: Agar (6.0 g) was added to LB (400 mL) and autoclaved. Once cool, the LB agar was poured into sterile petri dishes under sterile conditions and allowed to set. LB plates were stored at 4 °C until use.
# (§6) Preparation of bacterial plates: Sterile LB agar plates were streaked using streaked using the desired bacteria i) Pseudomonas aeruginosa (P.aeruginosa) PAO1, ii) Klebsiella pneumoniae (K. pneumoniae) M6 iii) E. coli NCTC 12923 and iv) Acinetobacter baumannii (A. baumannii) ATCC 17978 and Gram-positive i) Staphylococcus aureus (S. aureus) ATCC 9144 ii) Enterococcus faecalis (E. faecalis) NCTC 775 and iii) Enterococcus faecium (E. faecium ) NCTC 12204, then incubated at 37 °C overnight.
# (§7) Preparation of Inoculum: An initial culture was made up by inoculating LB media (5 mL) with a single colony of bacteria under sterile conditions and incubated at 37 °C with shaking overnight. The following day, overnight bacterial cultures were subcultured into fresh LB medium to a starting OD600 of 0.01.
# (§8) Preparation of 96 well microplate for MIC50: The 1:100 cell suspension (150 µL) was dispensed into individual wells under sterile conditions. SSAs (30 µL) were added to the wells to equal a total volume of 180 µL in the wells. Six repeats of each concentration for each SSA were created each plate. The plates were sealed using parafilm, then incubated at 37 °C in a microplate reader for 20 hours. OD600 endpoint data was used to generate growth curves. […]
# K. pneumoniae M6 = assay: inhibition of bacterial growth, OD600 after 20 h; assay type: cell-based, Klebsiella pneumoniae; details: SSA 5.0 mM, 2.5% ethanol, negative = enhanced growth
# Method: as §1, §2, §3, §4, §5, §6, §7, §8
# A. baumannii ATCC 17978 = assay: inhibition of bacterial growth, OD600 after 20 h; assay type: cell-based, Acinetobacter baumannii; details: SSA 5.0 mM, 2.5% ethanol, negative = enhanced growth, listed as 10
# Method: as §1, §2, §3, §4, §5, §6, §7, §8
# [2] = tensiometry: critical aggregate concentration (CAC) and surface tension; assay type: physicochemical
# Method: As the (Q) ^1H NMR spectroscopy experiments conducted at 5.6 mM in a D2O 5.0% EtOH solution confirmed the presence of higher-order self-associated structures with solid-like properties, concentration dependent surface tension measurements, obtained through tensiometry, were used to calculate critical aggregate concentration (CAC). Here the CAC is defined as the point at which an increase in SSA concentration no longer decreases surface tension but instead results in the formation of higher-order self-associated structures.
# E. faecium NCTC 12204 = assay: inhibition of bacterial growth, OD600 after 20 h; assay type: cell-based, Enterococcus faecium; details: SSA 5.0 mM, 2.5% ethanol, negative = enhanced growth
# Method: as §1, §2, §3, §4, §5, §6, §7, §8
# [3] = dynamic light scattering (DLS) of SSA aggregates; assay type: physicochemical; details: 5.6 mM, H2O 5.0% EtOH, 298 K; listed as 10
# Method: Dynamic light scattering (DLS) and zeta potential measurements in H2O 5.0% EtOH were used to determine the hydrodynamic diameter (dH) and stability of the higher-order SSA aggregates detected by (Q) ^1H NMR spectroscopy at 5.6 mM, Table 1. […] However, we are unable to confidently report a dH for 1 due to the instability of this system, which is supported by a zeta potential value of −26 mV, obtained for this SSA under the same experimental conditions. […] Due to the instability of these systems in the absence of solvent, attempts to further characterise these systems through SEM or AFM are not possible.[48]
# [4] = quantitative (Q) 1H NMR spectroscopy, proportion of SSA becoming NMR silent (higher-order aggregates); assay type: physicochemical
# Method: To confirm the presence of higher order self-associative structures quantitative (Q) ^1H NMR spectroscopy studies were undertaken at 5.6 mM in D2O 5% EtOH. Here the ^1H NMR resonances attributed to the EtOH are used as an internal standard.
# Table S1 – Overview of results of the quantitative (Q) 1H NMR studies for 1, 3, 5, 7 and 9
# 5.0 % EtOH . Values given in % represent the observed proportion of the SSA that has become
# Table S2 – Overview of results of the quantitative (Q) 1H NMR studies for 2, 4, 6, 8 and 10
# 5.0 % EtOH. Values given in % represent the observed proportion of anion and cation that has
# S. aureus ATCC 9144 = assay: inhibition of bacterial growth, OD600 after 20 h; assay type: cell-based, Staphylococcus aureus; details: SSA 5.0 mM, 2.5% ethanol, negative = enhanced growth, listed as 10
# Method: as §1, §2, §3, §4, §5, §6, §7, §8
# E. faecalis NCTC 775 = assay: inhibition of bacterial growth, OD600 after 20 h; assay type: cell-based, Enterococcus faecalis; details: SSA 5.0 mM, 2.5% ethanol, negative = enhanced growth
# Method: as §1, §2, §3, §4, §5, §6, §7, §8
# [5] = Caco-2, 5 or 10 µM, HBSS pH 7.4, 2 hours
# [6] = 5.6 mM, D2O 5.0% EtOH, 298 K, listed as 10
structure (smiles),measurement,setting,value
"C[C@H]1O[C@@H](O[C@H]2[C@@H](O)C[C@H](O[C@H]3[C@@H](O)C[C@H](O[C@H]4CC[C@@]5(C)[C@H](CC[C@@H]6[C@@H]5C[C@@H](O)[C@]5(C)[C@@H](C7=CC(=O)OC7)CC[C@]65O)C4)O[C@@H]3C)O[C@@H]2C)C[C@H](O)[C@@H]1O [Digoxin, reference compound]",Efflux Ratio,Caco-2 cell line; Caco-2,45.59
same,Recovery (%) AP-BL,Caco-2 cell line; Caco-2,95.92%
same,Recovery (%) BL-AP,Caco-2 cell line; Caco-2,99.20%
same,Papp (A-B),Caco-2 cell line; [5],"0.42 10-6, cm/s"
same,Papp (B-A),Caco-2 cell line; [5],"18.74 10-6, cm/s"
"CC(=O)N1CCN(c2ccc(OCC3COC(Cn4ccnc4)(c4ccc(Cl)cc4Cl)O3)cc2)CC1 (stereo not drawn) [Ketoconazole, reference compound]","remaining at 6 h, 5 µM","[1]; human plasma, 5 µM, 37 °C",101%
same,% Unbound,"[1]; human, plasma",0.86%
same,fraction unbound,"[1]; human, plasma",0.0086
O=C(O)CC[C@H](NC(=O)Nc1ccc(Br)cc1)C(=O)O [SSA 10],inhibition at 5000 µM,"E. coli NCTC 12923; Escherichia coli, NCTC12923, 20 h, read-out: Percentage inhibition of bacterial growth, NCTC 12923 (E. coli)",67.9%
same,"Percentage inhibition of bacterial growth, NCTC 12923 (E. coli)",E. coli NCTC 12923; listed as 10,68%
same,inhibition at 5000 µM,"K. pneumoniae M6; Klebsiella pneumoniae, M6, 20 h, read-out: Percentage inhibition of bacterial growth, M6 (K. pneumoniae)",32%
same,"Percentage inhibition of bacterial growth, M6 (K. pneumoniae)",K. pneumoniae M6; listed as 10,32%
same,"Percentage inhibition of bacterial growth, ATCC 17978 (A. baumannii)",A. baumannii ATCC 17978,49.97% and 50%
same,CAC,"[2]; H2O 5.0% EtOH, 298 K",26.00 mM and 26 mM
same,ST at CAC,"[2]; H2O 5.0% EtOH, 298 K",41 mN m^−1
same,Surface tension at CAC,"[2]; H2O/5.0 % EtOH, listed as 10",41.37 mN/m
same,inhibition at 5000 µM,"E. faecium NCTC 12204; Enterococcus faecium, NCTC12204, 20 h, read-out: Percentage inhibition of bacterial growth, NCTC 12204 (E. faecium)",34.1%
same,"Percentage inhibition of bacterial growth, NCTC 12204 (E. faecium)",E. faecium NCTC 12204; listed as 10,34%
same,Polydispersity index (%),[3],26.0 (± 0.5) %
same,dH (DLS intensity distribution peak 1 maxima),[3],307 nm
same,"(Q) 1H NMR spectroscopy, proportion NMR silent, acid or anion",[4]; [6],38%
same,"(Q) 1H NMR spectroscopy, proportion NMR silent, cation",[4]; [6],43.6% and 44%
same,"(Q) 1H NMR, proportion NMR silent, SSA acid or anion","[4]; ~112 mM, DMSO-d6 1.0% DCM",0%
same,"(Q) 1H NMR, proportion NMR silent, cation","[4]; ~112 mM, DMSO-d6 1.0% DCM",0%
same,"Percentage inhibition of bacterial growth, ATCC 9144 (S. aureus)",S. aureus ATCC 9144,17.46% and 17%
same,inhibition at 5000 µM,"E. faecalis NCTC 775; Enterococcus faecalis, NCTC775, 20 h, read-out: Percentage inhibition of bacterial growth, NCTC 775 (E. faecalis)",23.1%
same,"Percentage inhibition of bacterial growth, NCTC 775 (E. faecalis)",E. faecalis NCTC 775; listed as 10,23%
